Where “and” joins values, the source holds several entries; their conditions need not be identical. Identical values can stand only once.
Columns and labels:
Assay in all cases: BjaR receiver cell AHSL dose-response (gfp reporter, plate reader)
Assay type in all cases: cell-based, E. coli XL10-Gold
[1] = system: BjaRWT (B0034|CTG) receiver cells
From the text: These findings are consistent with the predicted translation initiation rates of the respective sequences—translation from the BBa_B0033 RBS provides 1% of protein yield compared to the BBa_B0034 RBS, just as an CTG start codon provides 1% of the protein yield compared to an ATG start codon[30],[31]. This also offers support as to why the ON-state gfp expression level increased in variants with a tighter OFF-state; more cellular resources were available for GFP synthesis when comparatively fewer were allocated to BjaR synthesis. To elucidate the impact of the S107R variant on gene circuit performance, we introduced the S107R variant alone back into the bjaRWT gene, in the context of the BBa_B0033 RBS background.
(§1) The BjaR reporter plasmids were retransformed into E. coli XL10-Gold cells for each experiment. A single colony was used to inoculate 5 ml LB + Amp media and incubated at 37 °C, 225 r.p.m. overnight. Overnight cultures were diluted 1/250 or 1/500 in 5 ml M9 minimal media + Amp and incubated at 37 °C, 225 r.p.m. for 3 h and 45 min (until OD600 = ~0.075). Cultures were diluted down to OD600 = 0.05 with M9 minimal media + Amp, and 200 µl was added to wells of a 96-well plate containing 1 µl IV-HSL dissolved in DMSO or 1 µl BjaI CFPS reactions (IV-HSL concentrations obtained from serial dilution from 63.2 µM to 632 pM; final DMSO concentration = 0.5%). Cells were incubated at 37 °C, 800 r.p.m., in a thermomixer with a heated lid for 4 h. Fluorescence and OD600 were measured in a Tecan M1000 infinite plate reader (excitation, 488 nm; emission, 510 nm; bandwidth, 5 nm; gain, 101 and z position, 21,311 µm). The dose–response curves were fitted to the function indicated by Eq. (1), where a = maximal fluorescence output, b = basal fluorescence output, X = concentration of AHSL, GFP = fluorescence at the given condition, EC50 = AHSL at 50% maximal fluorescence output and h = hill coefficient. EC50 and h were derived using the nonlinear regression model based on Eq. (1), in MATLAB. A summary of the dose–response data is available in Supplementary Table 1.1 GFP=b+a−b/1+10^logEC50−X×h

[2] = system: BjaRS107R (B0034|CTG) receiver cells
Experimental: (§2) After four rounds of random mutagenesis, ON-selection and outgrowth, the OFF- and ON-states of 45 BjaR variants were screened by measuring their GFP fluorescence in the absence and presence of 1 nM IV-HSL. […] To understand the true impact of these mutations on receiver cell performance, the bjaRS107R (CTG) and bjaRWT (ACG) genes were cloned back into the reporter plasmid backbone without kanR.
as §1

[3] = system: BjaRWT (B0034|ACG) receiver cells
Experimental: as §2, §1

[4] = Escherichia coli, IV-HSL-activated gfp expression

CC(C)CC(=O)N[C@H]1CCOC1=O [IV-HSL, N-isovaleryl-L-homoserine lactone] was tested, and the EC50 [1, 4] was 2.68 ± 0.48 nM, the hill coefficient ([1]; IV-HSL dose-response curve) was 1.41 and the GFP ([1]; Log([ASHL]) -6.5) was 43330 and 36104 and 38058. The Mean normalised fluorescence ([1]; Log([ASHL]) -6.5) was 201726, the Normalised fluorescence ([1]; Log([ASHL]) -6.5) was 210214 and 194525 and 200438 and the GFP ([1]; Log([ASHL]) -7) was 48602 and 34441 and 36003. For the same compound, the Mean normalised fluorescence ([1]; Log([ASHL]) -7) was 195635, the Normalised fluorescence ([1]; Log([ASHL]) -7) was 221814 and 183269 and 181822 and the GFP ([1]; Log([ASHL]) -7.5) was 42248 and 34562 and 36913. The Mean normalised fluorescence ([1]; Log([ASHL]) -7.5) was 179671, the Normalised fluorescence ([1]; Log([ASHL]) -7.5) was 188397 and 176029 and 174588 and the GFP ([1]; Log([ASHL]) -8) was 35155 and 35886 and 43108. For the same compound, the Mean normalised fluorescence ([1]; Log([ASHL]) -8) was 165401, the Normalised fluorescence ([1]; Log([ASHL]) -8) was 168235 and 168127 and 159840 and the GFP ([1]; Log([ASHL]) -8.5) was 36208 and 37675 and 33945. The Mean normalised fluorescence ([1]; Log([ASHL]) -8.5) was 139606, the Normalised fluorescence ([1]; Log([ASHL]) -8.5) was 151871 and 150220 and 116729 and the Mean normalised fluorescence ([1]; Log([ASHL]) -9) was 82973.4. For the same compound, the Mean normalised fluorescence ([1]; Log([ASHL]) -9.5) was 25740.3, the Mean normalised fluorescence ([1]; Log([ASHL]) -10) was 6739.8 and the GFP ([1]; Log([ASHL]) -10.5) was 896 and 846 and 722. The Mean normalised fluorescence ([1]; Log([ASHL]) -10.5) was 2692.26, the Normalised fluorescence ([1]; Log([ASHL]) -10.5) was 2989.77 and 2763.44 and 2323.58 and the GFP ([1]; Log([ASHL]) -11) was 668 and 631 and 690. For the same compound, the Mean normalised fluorescence ([1]; Log([ASHL]) -11) was 2167.6, the Normalised fluorescence ([1]; Log([ASHL]) -11) was 2233.16 and 2007.95 and 2261.7 and the GFP ([1]; Log([ASHL]) -11.5) was 630 and 671 and 595. For the same compound, the Mean normalised fluorescence ([1]; Log([ASHL]) -11.5) was 2035.58, the Normalised fluorescence ([1]; Log([ASHL]) -11.5) was 2037.65 and 2202.61 and 1866.48 and the EC50 [2, 4] was 0.44 ± 0.04 nM. The GFP ([2]; Log([ASHL]) -6.5) was 37925 and 45810 and 36660, the Mean normalised fluorescence ([2]; Log([ASHL]) -6.5) was 184153 and the Normalised fluorescence ([2]; Log([ASHL]) -6.5) was 205027 and 170089 and 177344. For the same compound, the GFP ([2]; Log([ASHL]) -7) was 36122 and 43880 and 35340, the Mean normalised fluorescence ([2]; Log([ASHL]) -7) was 165547 and the Normalised fluorescence ([2]; Log([ASHL]) -7) was 185321 and 153601 and 157719. The GFP ([2]; Log([ASHL]) -7.5) was 35735 and 43795 and 35365, the Mean normalised fluorescence ([2]; Log([ASHL]) -7.5) was 163310 and the Normalised fluorescence ([2]; Log([ASHL]) -7.5) was 180638 and 151602 and 157690. The GFP ([2]; Log([ASHL]) -8) was 43912 and 35147 and 35505, the Mean normalised fluorescence ([2]; Log([ASHL]) -8) was 161376 and the Normalised fluorescence ([2]; Log([ASHL]) -8) was 150185 and 151700 and 182243. The GFP ([2]; Log([ASHL]) -8.5) was 44967 and 35318 and 37269, the Mean normalised fluorescence ([2]; Log([ASHL]) -8.5) was 147580 and the Normalised fluorescence ([2]; Log([ASHL]) -8.5) was 140866 and 144147 and 157727. The GFP ([2]; Log([ASHL]) -9) was 41968 and 33264 and 37415, the Mean normalised fluorescence ([2]; Log([ASHL]) -9) was 127915 and the Normalised fluorescence ([2]; Log([ASHL]) -9) was 124650 and 118620 and 140474. The GFP ([2]; Log([ASHL]) -9.5) was 22707 and 17817 and 19857, the Mean normalised fluorescence ([2]; Log([ASHL]) -9.5) was 69560.7 and the Normalised fluorescence ([2]; Log([ASHL]) -9.5) was 65949.9 and 69200.5 and 73531.6. For the same compound, the GFP ([2]; Log([ASHL]) -10) was 5295 and 3943 and 4882, the Mean normalised fluorescence ([2]; Log([ASHL]) -10) was 15714.4 and the Normalised fluorescence ([2]; Log([ASHL]) -10) was 15242.3 and 14666.4 and 17234.6. The GFP ([2]; Log([ASHL]) -10.5) was 1534 and 1232 and 1622, the Mean normalised fluorescence ([2]; Log([ASHL]) -10.5) was 4749.74 and the Normalised fluorescence ([2]; Log([ASHL]) -10.5) was 4305.92 and 4298.44 and 5644.87. For the same compound, the GFP ([2]; Log([ASHL]) -11) was 1122 and 884 and 1057, the Mean normalised fluorescence ([2]; Log([ASHL]) -11) was 3184.98 and the Normalised fluorescence ([2]; Log([ASHL]) -11) was 3030.92 and 3019.01 and 3505.01. For the same compound, the GFP ([2]; Log([ASHL]) -11.5) was 784 and 731 and 617, the Mean normalised fluorescence ([2]; Log([ASHL]) -11.5) was 2156.19 and the Normalised fluorescence ([2]; Log([ASHL]) -11.5) was 2102.93 and 2315.04 and 2050.6. The “fold activation of gfp expression” value ([2]; with vs without IV-HSL) was ~ 88 fold, the EC50 [3, 4] was 22.3 ± 2.59 nM and the GFP ([3]; Log([ASHL]) -6.5) was 41705 and 34148 and 40466. For the same compound, the Mean normalised fluorescence ([3]; Log([ASHL]) -6.5) was 152634, the GFP ([3]; Log([ASHL]) -7) was 36443 and 32999 and 38903 and the Mean normalised fluorescence ([3]; Log([ASHL]) -7) was 132540. For the same compound, the GFP ([3]; Log([ASHL]) -7.5) was 26920 and 30479 and 35001, the Mean normalised fluorescence ([3]; Log([ASHL]) -7.5) was 111442 and the GFP ([3]; Log([ASHL]) -8) was 23596 and 24216 and 12337. The Mean normalised fluorescence ([3]; Log([ASHL]) -8) was 70550.8, the Mean normalised fluorescence ([3]; Log([ASHL]) -8.5) was 28355.7 and the Mean normalised fluorescence ([3]; Log([ASHL]) -9) was 6838.99. For the same compound, the Mean normalised fluorescence ([3]; Log([ASHL]) -9.5) was 1496.47, the GFP ([3]; Log([ASHL]) -10) was 268 and 258 and 219 and the Mean normalised fluorescence ([3]; Log([ASHL]) -10) was 638.735. For the same compound, the GFP ([3]; Log([ASHL]) -10.5) was 198 and 199 and 217, the Mean normalised fluorescence ([3]; Log([ASHL]) -10.5) was 483.533 and the GFP ([3]; Log([ASHL]) -11) was 195 and 198 and 217. The Mean normalised fluorescence ([3]; Log([ASHL]) -11) was 487.314, the GFP ([3]; Log([ASHL]) -11.5) was 199 and 225 and 193 and the Mean normalised fluorescence ([3]; Log([ASHL]) -11.5) was 497.83. The “fold activation of gfp expression” value ([3]; with vs without IV-HSL) was ~ 309 fold.

— publication PMC10449621, “Engineering cellular communication between light-activated synthetic cells and bacteria” (Nature Chemical Biology, 2023)
